Data on 20 compounds can be found in US20130317027A1, “COMPOUNDS AND THERAPEUTIC USES THEREOF” (Myrexis, Inc, priority 2010, published 2013).

The term IC50 denotes the midpoint of a concentration-inhibition curve.

One data set concerns the target T1, Human NAMPT (Homo sapiens, UniProt P43490).
T1 construct: 6xHis (N); made in house; host or cells: E. coli BL21-AI
Description: Nampt Activity Assay (coupled enzyme, resazurin/diaphorase fluorometric detection of NADH). The conditions noted are these: read-out: vitro IC50 (Nampt activity assay). It is filed as biochemical. The text has this: 5-phosphoribosyl-1-pyrophosphate (PRPP), ATP, NaM, NaMN, Triton X-100, UDP-glucose and diaphorase were purchased from Sigma-Aldrich, St. Louis, Mo. Human NAMPT, NMN adenylyltransferase (NMNAT1) and UDP-glucose dehydrogenase (UGDH) encoding DNAs were each inserted into a house-modified E. Coli expression vector such that the expressed proteins carried an N-terminal 6×His tag. The His-tagged proteins were expressed in the BL21-AI E. Coli expression strain (Invitrogen Corporation, Carlsbad, Calif.) following induction by 0.2% L-arabinose and 0.5 mM IPTG at 30° C. Proteins were purified on Ni-NTA resin (Qiagen, Germantown, Md.).
The assay for Nampt catalytic activity was constructed based on a previously published coupled enzyme fluorometric technique, which employs NADH as ultimate analyte (Revollo, J. R. et al. Biol. Chem. 279, 50754-50763 (2004)). A substantial improvement in assay sensitivity was achieved by switching from direct detection to a resazurin/diaphorase-based fluorometric detection system for NADH (Guilbault, G. G., and Kramer, D. N. Anal. Chem. 37, 1219-1221 (1965)). The standard inhibition analyses were performed in a real-time mode in 96-well microtiter plates using 50 mM Tris-HCl, pH 7.5, 1% DMSO (v/v), 0.01% Triton X-100 (v/v), 10 mM MgCl2, 2 mM ATP, […], […], […], as well as the following detection reagents: 5 nM Nmnat, 200 nM Ugdh, 200 µM UDP-glucose, 0.02 U/mL diaphorase and […]. Incubation of samples at room temperature for up to 3 hours was followed by quantification of fluorescence intensities at excitation and emission wavelengths of 510 nm and 590 nm, respectively, using Gemini XS plate reader (Molecular Devices, Sunnyvale, Calif.). The counter-assay intended to disqualify false positives, such as inhibitors of detection enzymes or fluorescence quenchers, was carried out essentially as described above with an exception that 1 μM NaMN was substituted for Nampt.

A short description of data set [1]: Cytotoxicity Assay (CellTiter-Glo, 72 hour drug incubation). Particulars: human, HCT116 cells.
Description: (§1) HCT116 cells were seeded in 96 well plates (Greiner Bio-One, Monroe, N.C.) and allowed to settle overnight. Test compound dissolved in dimethyl sulfoxide (DMSO) was added and drug incubation proceeded for 72 hours. […] After 72 hour, 50 L of CellTiter-Glo Luminescent Cell Viability Assay reagent (Promega Corporation, Madison, Wis.) was added to cells in 200 L of cellular media. After a proscribed incubation period, luminescence was measured using a TopCount NXT plate reader (PerkinElmer, Waltham, Mass.).
The next data set deals with PARP. Particulars: in vitro and in vivo models of cerebral ischemia; cited from earlier work.
Data set [2] deals with HCT116 cells.
Description: as §1
The test system of data set [3] is HCT116 cells. Description: Synergy between Nampt inhibitor and chemotherapeutic compounds (MacSynergy II, CellTiter-Glo). Particulars: combined with a known Nampt inhibitor. It is filed as cell-based. A general note: In ATP-based viability assays light output follows the ATP content of the culture.
Description: Experiments were conducted in HCT116 cells. […] Prior to combinations of compounds, dose curves of cells treated with a single compound were generated to define relevant compound doses to use in the combination analysis. Typically, relevant doses were those found in the inflection portion of a sigmoidal dose-response curve. Utilizing these optimized conditions, cells were dosed with Nampt inhibitor plus the test compound at a variety of concentrations of each, and viability was assessed using CellTiter-Glo. Data was processed using the MacSynergy™ II algorithm, which subtracted from actual data a prediction of compound additivity.
The test system of data set [4] is murine gastric and bladder tumors. Particulars: immune-competent mice; cited from earlier work.
For a further data set, the system named is PARP in HCT116 cells. The experiment in a line: PARP activation by 5-FU. It is filed as cell-based. The text has this:
Kim, M. Y. et al. Genes & Development 19:1951-67 (2005)). […] TS inactivation is know to cause an imbalance in nucleotide pools that subsequently promotes aberrant uracil incorporation into DNA (Berger S. H. et al. Biochemical Pharmacology 76:697-706 (2008)).

T1 sequence (P43490 whole entry): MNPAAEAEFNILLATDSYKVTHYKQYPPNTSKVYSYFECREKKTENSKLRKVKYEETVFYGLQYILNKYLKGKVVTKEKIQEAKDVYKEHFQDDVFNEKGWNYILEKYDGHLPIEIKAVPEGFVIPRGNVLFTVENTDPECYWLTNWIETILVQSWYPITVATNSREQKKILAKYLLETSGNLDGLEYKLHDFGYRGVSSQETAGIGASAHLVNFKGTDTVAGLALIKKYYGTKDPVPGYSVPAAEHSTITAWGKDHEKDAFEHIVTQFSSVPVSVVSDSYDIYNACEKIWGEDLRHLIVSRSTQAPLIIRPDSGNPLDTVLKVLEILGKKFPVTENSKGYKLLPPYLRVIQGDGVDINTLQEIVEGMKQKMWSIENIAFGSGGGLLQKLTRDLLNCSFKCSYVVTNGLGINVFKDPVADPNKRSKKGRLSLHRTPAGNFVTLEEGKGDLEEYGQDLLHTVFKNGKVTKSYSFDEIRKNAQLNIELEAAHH

Consider `O=C(NCCCNS(=O)(=O)c1ccccc1-c1ccccc1)NCc1cccnc1` [Example 152, N-(3-{[(pyridin-3-ylmethyl)carbamoyl]amino}propyl)biphenyl-2-sulfonamide], for which, at Human NAMPT, the IC50 was about 2 nM. In data set [1], this compound had an IC50 at 72 h of about 55 nM. Regarding `O=c1[nH]c(CCCN2CC=C(c3ccccc3)CC2)nc2cccc(Cl)c12` [FR247304], the neuronal damage result in the data set on PARP was “attenuate neuronal damage”. In the case of `O=C(NCc1cccnc1)Nc1ccc(NS(=O)(=O)c2cc(C(=O)NCC3CCCN3)c(Cl)cc2F)cc1` (centres unmarked) [Example 831, 2-Chloro-4-fluoro-5-[(4-{[(pyridin-3-ylmethyl)carbamoyl]amino}phenyl)sulfamoyl]-N-(pyrrolidin-2-ylmethyl)benzamide], the IC50 at Human NAMPT was about 10 nM. For the compound `O=C(NCc1cccnc1)Nc1ccc(COc2cc(C(F)(F)F)ccc2Cl)cc1` [Example 164, 1-(4-{[2-Chloro-5-(trifluoromethyl)phenoxy]methyl}phenyl)-3-(pyridin-3-ylmethyl)urea], the IC50 on Human NAMPT is about 1.8 nM. This compound also came in with an IC50 at 72 h in data set [1] of about 74 nM. For `O=C(NCc1cccnc1)Nc1ccc(C[S+]([O-])c2ccccc2-c2ccccc2)cc1` (centres unmarked) [Example 210, 1-{4-[(biphenyl-2-ylsulfinyl)methyl]phenyl}-3-(pyridin-3-ylmethyl)urea] the same measures were about 6.3 nM and about 39 nM.

For “4-Fluoro-2-{2-[3- (morpholin-4- yl)azetidin-1- yl]pyridin-4-yl}- N-(4-{[(pyridin- 3-ylmethyl) carbamoyl] amino}phenyl) benzenesulfon- amide [Example 762]”, the IC50 in the data set with HCT116 cells [2] is about 2.2 nM. As for `O=C(c1cc(Cc2n[nH]c(=O)c3ccccc23)ccc1F)N1CCN(C(=O)C2CC2)CC1` [olaparib], the “drug interaction (synergy, additivity, or antagonism) with Nampt inhibitor” value (from here on “drug interaction … with Nampt inhibitor”) in the data set with HCT116 cells [3] was “antagonism”. Consider `O=C(/C=C/c1cccnc1)NCCCCC1CCN(C(=O)c2ccccc2)CC1` [AP0866], for which the “effect on tumor growth, co-administration with L-1MT” value in data set [4] is “additive inhibitory effect”.

Turning to `O=C(NCc1cccnc1)Nc1ccc(OCCc2ccc(F)cc2-c2ccnc(N3CCNCC3)c2)cc1` [Example 759, 1-[4-(2-{4-Fluoro-2-[2-(piperazin-1-yl)pyridin-4-yl]phenyl}ethoxy)phenyl]-3-(pyridin-3-ylmethyl)urea], the IC50 at 72 h in data set [1] is about 1.9 nM.

Turning to `COc1cc(N/C(=N/C#N)NCc2ccc(NS(=O)(=O)c3ccccc3-c3ccccc3)cc2)ccn1` [Example 613, N-{4-[({(Z)-(Cyanoamino)[(2-methoxypyridin-4-yl)amino]methylidene}amino)methyl]phenyl} biphenyl-2-sulfonamide], the IC50 at Human NAMPT was about 11 nM. For the same compound, the IC50 at 72 h in data set [1] is about 2600 nM. For `N#C/N=C(/NCC(=O)NCCOc1ccccc1-c1ccccc1)Nc1ccncc1` [Example 634, (Z)-N-[2-(Biphenyl-2-yloxy)ethyl]-N~2~- [(cyanoamino)(pyridin-4-ylamino)methylidene] glycinamide] the same measures were about 520 nM and about 5000 nM. For `N#Cc1ccc(S(=O)(=O)Nc2ccc(NC(=O)NCc3cccnc3)cc2)c(Cl)c1` [Example 580, 2-Chloro-4-cyano-N-(4-{[(pyridin-3-ylmethyl)carbamoyl]amino}phenyl) benzenesulfonamide], in that order: about 0.8 nM and about 100 nM.

On to `N#C/N=C(/NCc1ccc(COc2ccccc2-c2ccccc2)cc1)Nc1ccncc1` [Example 605, 1-{4-[(Biphenyl-2-yloxy)methyl]benzyl}-2-cyano-3-pyridin-4-ylguanidine], for which the IC50 on Human NAMPT was about 2.4 nM. Moreover, the IC50 at 72 h in data set [1] was about 1.1 nM. As to `N#C/N=C(\NCCOc1ccccc1-c1ccccc1)Nc1cccnc1` [Example 641, 1-[2-(Biphenyl-2-yloxy)ethyl]-2-cyano-3-pyridin-3-ylguanidine], at Human NAMPT, the IC50 was about 1300 nM. This compound also had an IC50 at 72 h in data set [1] of about 3200 nM. In the case of `Oc1cccc(-c2nc(N3CCOCC3)c3oc4ncccc4c3n2)c1` [PI-103], the “drug interaction … with Nampt inhibitor” value with HCT116 cells [3] is listed as “synergized”.

Turning to `COS(C)(=O)=O` [methyl methanesulfonate (MMS), methyl methanesulfonate], the “drug interaction … with Nampt inhibitor” value in the data set with HCT116 cells [3] was “synergy”. On to `C[C@H](Oc1ccccc1-c1ccccc1)c1nc(CNC(=O)NCc2cccnc2)cs1` [Example 363, 1-({2-[(1S)-1-(Biphenyl-2-yloxy)ethyl]-1,3-thiazol-4-yl}methyl)-3-(pyridin-3-ylmethyl)urea], for which the IC50 on Human NAMPT was about 3.4 nM. The compound further had an IC50 at 72 h in data set [1] of about 290 nM.

For the compound `Cc1nc2ccc(CN(C)c3ccc(C(=O)N[C@@H](CCC(=O)O)C(=O)O)s3)cc2c(=O)[nH]1` [raltitrexed], the “drug interaction … with Nampt inhibitor” value in the data set on HCT116 cells [3] is recorded as “synergized”. `O=c1[nH]cc(F)c(=O)[nH]1` [5-fluorouracil (5-FU), 5-fluorouracil]: the PARP activation entry in the data set with PARP in HCT116 cells is recorded as “PARP activator”.

With `CN(C)CCOc1cccc(-c2ccccc2CCOc2ccc(NC(=O)NCc3cccnc3)cc2)c1` [Example 797, 1-[4-(2-{3′-[2-(Dimethylamino)ethoxy]biphenyl-2-yl}ethoxy)phenyl]-3-(pyridin-3-ylmethyl)urea], the IC50 on Human NAMPT is about 10 nM.
